A value given as a limit tells only on which side of the number the result lay.

The series can be described thus: Photochromic response on optical bench (lambda max, sensitivity, saturation optical density, bleach rate) of naphthopyrans imbibed into test square polymerizates. It counts as physicochemical. To be noted: for BLEACH RATE T1/2: time for absorbance to reach one half the highest absorbance after removal of activating light, 75° F., 23.9° C.; for Δ OD @ SATURATION: UV exposure continued for 20 minutes; for Δ OD @ SATURATION / Δ OD/Min SENSITIVITY: diethylene glycol bis(allyl carbonate), 75° F. (23.9° C.); for Δ OD/Min SENSITIVITY: first five (5) seconds of UV exposure, expressed on a per minute basis; for LAMBDA MAX of the activated (colored) form in the visible spectrum: imbibed into diethylene glycol bis(allyl carbonate) composition. The protocol:
Testing was done with selected photochromic naphthopyrans incorporated into test square polymerizates by one of two different imbibition processes. The test square polymerizates were prepared from a diethylene glycol bis(allyl carbonate) composition and measured 1/8 inch (0.3 centimeters)×2 inches (5.1 centimeters)×2 inches (5.1 centimeters). In one of the imbibition processes, the photochromic naphthopyran was dissolved to form a 10 weight percent solution in a 1:9 mixture of ethyl cellulose:toluene. The solution was then spin coated onto the test squares and allowed to dry. […] After cooling, the ethyl cellulose/toluene resin film was removed from the test squares by washing with acetone.
Alternatively, the test squares were imbibed by the following procedure. Each naphthopyran was dissolved into toluene to form a four (4) weight percent solution of the compound. A piece of No. 4 Whatman filter paper was saturated with the naphthopyran toluene solution and allowed to air dry. The dried filter paper was placed on one side of the test square. A piece of untreated filter paper was placed on the other side of the polymeric test square and the resulting sandwich was placed between two flat aluminum metal plates. […] After cooling, the test squares were washed with acetone.
The photochromic squares were tested for photochromic response rates on an optical bench. […] The bench was fitted with a 150 watt Xenon arc lamp, a remote controlled shutter, a copper sulfate bath acting as a heat sink for the arc lamp, a Schott WG-320 nm cut-off filter which removes short wavelength radiation; neutral density filter(s) and a sample holder in which the square to be tested was inserted. A collimated beam of light from a tungsten lamp was passed through the square at a small angle normal to the square. After passing through the square, the light from the tungsten lamp was directed through a photopic filter attached to a detector. The photopic filter passes wavelengths such that the detector mimics the response of the human eye. The output signals from the detector(s) were processed by a radiometer.
Change in optical density (ΔOD) was determined by inserting an imbibed square in the bleached state into the sample holder, adjusting the transmittance scale to 100%, opening the shutter from the Xenon lamp to provide ultraviolet radiation to change the imbibed square from the bleached state to an activated (i.e., darkened) state, measuring the transmittance in the activated state, and calculating the change in optical density according to the formula ΔOD=log(100% Ta) where % Ta is the percent transmittance in the activated state and the logarithm is to the base 10.
The ΔOD/Min, which represents the sensitivity of the photochromic compound's response to UV light, was measured over the first five (5) seconds of UV exposure, then expressed on a per minute basis. The saturation optical density (OD) was taken under identical conditions as the ΔOD/Min, except UV exposure was continued for 20 minutes for the examples in Table 1. The lambda max reported in Table 1 is the wavelength in the visible spectrum at which the maximum absorption of the activated (colored) form of the photochromic compound in a diethylene glycol bis(allyl carbonate) composition occurs.

In the case of `C1=CC(c2ccccc2)(c2ccccc2)Oc2c1ccc1ccccc21` [Comparative Example 1, 2,2-diphenyl-[2H]-naphtho[1,2-b]pyran, reference compound], the “BLEACH RATE T1/2” value (Table 2 comparison) was more than 30 min.
The same measure, in the same setting: the same measure for `Cc1cc2ccccc2c2c1C=CC(c1ccccc1)(c1ccccc1)O2` [Comparative Example 2, 2,2-diphenyl-5-methyl-[2H]-naphtho[1,2-b]pyran, reference compound]: 10.7 min; for `C1=CC2(Oc3c1ccc1ccccc31)C1CC3CC(C1)CC2C3` (centres unmarked) [Comparative Example 3, 2,2-spiroadamantylene-[2H]-naphtho[1,2-b]pyran, reference compound]: 3.75 min; for `COc1ccc(C2(C(C)(C)C)C=Cc3ccc4ccccc4c3O2)cc1` (centres unmarked) [Comparative Example 4, 2-(4-methoxyphenyl)-2-t-butyl-[2H]naphtho[1,2-b]pyran, reference compound]: more than 30 min.
As for `COC(=O)c1c2c(c3ccccc3c1O)OC(c1ccc(OC)cc1)(c1ccc(OC)cc1)C=C2` [Example 1, 2,2-bis(4-methoxyphenyl)-5-methoxycarbonyl-6-hydroxy-[2H]-naphtho[1,2-b]pyran], the “Δ OD @ SATURATION” value came out at 0.18, the “Δ OD/Min SENSITIVITY” value is recorded as 0.47 Δ OD/Min and the “LAMBDA MAX of the activated (colored) form in the visible spectrum” value (“LAMBDA MAX of the activated” below) is recorded as 497 nm. Moreover, the “BLEACH RATE T1/2” value (Table 1) came out at 3.92 min.
For `COC(=O)c1c2c(c3ccccc3c1OC)OC(c1ccc(OC)cc1)(c1ccc(OC)cc1)C=C2` [Example 2, 2,2-bis(4-methoxyphenyl)-5-methoxycarbonyl-6-methoxy-[2H]-naphtho[1,2-b]pyran], the “Δ OD @ SATURATION” value is 0.48, the “Δ OD/Min SENSITIVITY” value is 0.81 Δ OD/Min and the “LAMBDA MAX of the activated” value is given as 510 nm. In addition, under “Table 1”, the “BLEACH RATE T1/2” value was found to be 5.08 min.
On the same counts, the results for `CCOC(=O)COc1c(C(=O)OC)c2c(c3ccccc13)OC(c1ccc(OC)cc1)(c1ccc(OC)cc1)C=C2` [Example 3, 2,2-bis(4-methoxyphenyl)-5-methoxycarbonyl-6-ethoxycarbonylmethoxy-[2H]-naphtho[1,2-b]pyran] are 0.44, 0.79 Δ OD/Min, 508 nm and 3.52 min.
In the case of `COC(=O)c1c2c(c3ccccc3c1OC(C)=O)OC(c1ccc(OC)cc1)(C(C)(C)C)C=C2` (centres unmarked) [Example 4, 2-(4-methoxyphenyl)-2-t-butyl-5-methoxycarbonyl-6-acetoxy-[2H]naphtho[1,2-b]pyran], the “BLEACH RATE T1/2” value (Table 2 comparison) was found to be 7.22 min.
As for `COC(=O)c1c2c(c3ccccc3c1OCC#N)OC(c1ccccc1)(c1ccc(OC)cc1)C=C2` (centres unmarked) [Example 5, 2-(4-methoxyphenyl)-2-phenyl-5-methoxycarbonyl-6-(cyanomethoxy)-[2H]-naphtho [1,2-b]pyran], the “LAMBDA MAX of the activated” value is 494 nm.
On to `COC(=O)Oc1c(C(=O)OC)c2c(c3ccccc13)OC(c1ccc(C)cc1)(c1ccc(C)cc1)C=C2` [Example 6, 2,2-bis(4-methylphenyl)-5-methoxycarbonyl-6-(methoxycarbonyloxy)-[2H]-naphtho[1,2-b]pyran], for which the “Δ OD @ SATURATION” value is 0.17, the “Δ OD/Min SENSITIVITY” value is listed as 0.32 Δ OD/Min and the “LAMBDA MAX of the activated” value is recorded as 482 nm. For the same molecule, the “BLEACH RATE T1/2” value (Table 1) was 1.67 min.
As for `COC(=O)c1c2c(c3ccccc3c1OC(C)=O)OC(c1ccccc1)(c1ccccc1)C=C2` [Example 7, 2,2-diphenyl-5-methoxycarbonyl-6-acetoxy-[2H]-naphtho[1,2-b]pyran], the “BLEACH RATE T1/2” value (Table 2 comparison) was 3.67 min.
Consider `COC(=O)c1c2c(c3ccccc3c1C)OC(c1ccc(OC)cc1)(c1ccc(OC)cc1)C=C2` [Example 8, 2,2-bis(4-methoxyphenyl)-5-methoxycarbonyl-6-methyl-[2H]-naphtho[1,2-b]pyran], for which the “Δ OD @ SATURATION” value was 0.42, the “Δ OD/Min SENSITIVITY” value was 0.63 Δ OD/Min and the “LAMBDA MAX of the activated” value is on record as 476 nm. In addition, the “BLEACH RATE T1/2” value (Table 1) was found to be 3.62 min.
For `COC(=O)c1c2c(c3cc(OC)ccc3c1C)OC(c1ccc(OC)cc1)(c1ccc(OC)cc1)C=C2` [Example 9, 2,2-bis(4-methoxyphenyl)-5-methoxycarbonyl-6-methyl-9-methoxy-[2H]-naphtho[1,2-b]pyran] the same measures were 0.58, 0.58 Δ OD/Min, 522 nm and 6.27 min.
For `CCC(=O)Oc1c(C(=O)OC)c2c(c3ccccc13)OC(c1ccccc1)(c1ccccc1)C=C2` [Example 10, 2,2-diphenyl-5-methoxycarbonyl-6-(propionyloxy)-[2H]-naphtho[1,2-b]pyran] the same measures were 0.19, 0.39 Δ OD/Min, 470 nm and 4.28 min.
For `COC(=O)c1c2c(c3ccccc3c1OC(C)=O)OC(c1cccc(C(F)(F)F)c1)(c1cccc(C(F)(F)F)c1)C=C2` [Example 11, 2,2-bis(3-trifluoromethylphenyl)-5-methoxycarbonyl-6-acetoxy-[2H]-naphtho[1,2-b]pyran] the same measures were 0.08, 0.15 Δ OD/Min, 455 nm and 3.63 min.
For `CCOC(=O)COc1c(C(=O)OC)c2c(c3ccccc13)OC(c1ccc(OC)cc1)(c1ccc3c(c1)CC(C)O3)C=C2` (centres unmarked) [Example 12, 2-(4-methoxyphenyl)-2-(2-methyl-2,3-dihydrobenzofur-5-yl)-5-methoxycarbonyl-6-ethoxycarbonylmethoxy-[2H]-naphtho[1,2-b]pyran], the “Δ OD @ SATURATION” value worked out at 0.53, the “Δ OD/Min SENSITIVITY” value is 0.83 Δ OD/Min and the “LAMBDA MAX of the activated” value was 517 nm. The “BLEACH RATE T1/2” value (Table 1) amounted to 4.6 min.
For the molecule `COC(=O)c1c2c(c3ccccc3c1OC)OC1(C=C2)C2CC3CC(C2)CC1C3` (centres unmarked) [Example 13, 2,2'-spiroadamantylene-5-methoxycarbonyl-6-methoxy-[2H]-naphtho[1,2-b]pyran], the “BLEACH RATE T1/2” value (Table 2 comparison) is 1.63 min.
